# Laboratory results taken from US8481538B2, “Heterocyclic inhibitors of c-Met and uses thereof” (Vertex Pharmaceuticals Incorporated, priority 2006, dated 2013).
# Target: c-Met (Homo sapiens, UniProt P08581)
# Test: Ki determination for the inhibition of c-Met (standard radiometric kinase assay)
# Assay type: biochemical
# Conditions: radiometric 33P-ATP assay, 1.0 nM c-Met, 35 μM ATP, 0.5 mg/mL polyE4Y, competitive tight-binding fit
# Procedure: Ki Determination for the Inhibition of c-Met
# Compounds of the invention were screened for their ability to inhibit c-Met kinase activity using a standard radiometric assay. Briefly, in this kinase assay the transfer of the terminal ^33P-phosphate in ^33P-ATP to substrate polyE4Y is interrogated. The assay was carried out in 96-well plates to a final volume of 100 μL per well containing 1.0 nM c-Met, 100 mM HEPES (pH 7.5), 10 mM MgCl2, 25 mM NaCl, 0.01% BSA, 1 mM DTT, 0.5 mg/mL polyE4Y, and 35 μM ATP. Accordingly, compounds of the invention were dissolved in DMSO to make 10 mM initial stock solutions. Serial dilutions in DMSO were then made to obtain the final solutions for the assay. A 1.5 μL aliquot of DMSO or inhibitor in DMSO was added to each well. The reaction was initiated by the addition of ^33P-ATP and polyE4Y (obtained from Sigma). After 20 min, the reaction was quenched with 50 μL of 30% trichloroacetic acid (TCA) containing 4 mM ATP. The reaction mixture was transferred to the 0.66 mm GF filter plates (Corning) and washed three times with 5% TCA. Following the addition of 50 μL of Ultimate Gold™ high efficiency scintillant (Packard Bioscience), the samples were counted in a Packard TopCount NXT Microplate Scintillation and Luminescence Counter (Packard BioScience). The Ki values were calculated using Microsoft Excel Solver macros to fit the data to the kinetic model for competitive tight-binding inhibition.
# Sequence of c-Met (P08581 25-1390): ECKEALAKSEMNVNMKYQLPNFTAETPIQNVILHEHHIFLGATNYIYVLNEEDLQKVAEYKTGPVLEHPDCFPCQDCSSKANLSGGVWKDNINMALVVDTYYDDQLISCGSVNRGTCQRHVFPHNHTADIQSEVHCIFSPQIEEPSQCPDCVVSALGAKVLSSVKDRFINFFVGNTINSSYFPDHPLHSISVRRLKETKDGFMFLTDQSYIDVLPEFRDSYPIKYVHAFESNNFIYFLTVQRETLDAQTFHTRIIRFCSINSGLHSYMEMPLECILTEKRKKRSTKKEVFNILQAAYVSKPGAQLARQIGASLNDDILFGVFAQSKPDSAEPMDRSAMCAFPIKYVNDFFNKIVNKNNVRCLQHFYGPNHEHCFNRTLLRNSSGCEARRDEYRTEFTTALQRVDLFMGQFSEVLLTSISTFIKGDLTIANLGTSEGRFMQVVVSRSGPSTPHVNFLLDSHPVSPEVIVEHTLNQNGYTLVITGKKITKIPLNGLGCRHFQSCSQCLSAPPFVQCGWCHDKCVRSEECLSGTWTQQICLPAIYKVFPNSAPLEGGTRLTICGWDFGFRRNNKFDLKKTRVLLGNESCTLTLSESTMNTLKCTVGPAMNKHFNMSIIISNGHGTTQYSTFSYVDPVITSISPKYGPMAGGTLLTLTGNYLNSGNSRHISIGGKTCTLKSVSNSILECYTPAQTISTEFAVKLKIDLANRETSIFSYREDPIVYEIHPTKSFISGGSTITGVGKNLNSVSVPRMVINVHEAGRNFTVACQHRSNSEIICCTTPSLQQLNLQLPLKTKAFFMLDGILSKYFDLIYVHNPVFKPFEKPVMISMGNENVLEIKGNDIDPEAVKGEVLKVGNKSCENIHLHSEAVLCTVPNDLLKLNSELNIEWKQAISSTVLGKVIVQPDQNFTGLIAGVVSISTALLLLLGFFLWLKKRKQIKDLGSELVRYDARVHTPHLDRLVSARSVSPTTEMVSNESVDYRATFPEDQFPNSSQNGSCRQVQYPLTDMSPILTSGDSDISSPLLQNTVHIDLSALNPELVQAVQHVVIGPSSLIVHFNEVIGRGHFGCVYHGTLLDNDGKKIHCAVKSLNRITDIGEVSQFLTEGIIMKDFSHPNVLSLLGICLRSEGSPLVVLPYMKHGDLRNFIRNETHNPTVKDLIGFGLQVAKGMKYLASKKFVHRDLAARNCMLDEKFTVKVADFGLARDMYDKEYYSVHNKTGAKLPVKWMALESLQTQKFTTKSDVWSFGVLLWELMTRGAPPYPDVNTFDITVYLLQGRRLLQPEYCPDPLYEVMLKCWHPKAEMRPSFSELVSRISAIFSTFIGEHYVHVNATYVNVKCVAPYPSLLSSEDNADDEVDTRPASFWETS
row,Ki [nM],SMILES
1,≤ 250,C[C@@H](NC(=O)c1nc(-c2ccc(C3(O)CCNCC3)cc2)cnc1N)c1nnc2ccc(Nc3cccc(Cl)c3)nn12 [Compound 68]
2,≤ 250,C[C@@H](NC(=O)c1nc(-c2cccc(N3CCNCC3)c2)cnc1N)c1nnc2ccc(Nc3cccc(Cl)c3)nn12 [Compound 69]
3,≤ 250,C[C@@H](NC(=O)c1nc(-c2ccc(CN3CCCC3)c(F)c2)cnc1N)c1nnc2ccc(Nc3cccc(Cl)c3)nn12 [Compound 70]
4,250 to 2500,CCOc1ccc2nnc([C@@H](C)NC(=O)c3nc(-c4ccc(CN5CCCC5)cc4)cnc3N)n2n1 [Compound 71]
5,≤ 250,C[C@@H](NC(=O)c1nc(-c2ccc(N3CCNCC3)cc2)cnc1N)c1nnc2ccc(Nc3cccc(Cl)c3)nn12 [Compound 72]
6,250 to 2500,C[C@@H](NC(=O)c1nc(-c2ccccc2)cnc1N)c1nnc2sc(N)nn12 [Compound 74]
7,250 to 2500,Cc1nn2c([C@@H](C)NC(=O)c3nc(-c4ccccc4)cnc3N)nnc2s1 [Compound 75]
8,≤ 250,C[C@@H](NC(=O)c1nc(-c2ccc(CN(C)C)cc2)cnc1N)c1nnc2ccc(Nc3cccc(Cl)c3)nn12 [Compound 76]
9,≤ 250,C[C@@H](NC(=O)c1nc(-c2cccc(C3CCNCC3)c2)cnc1N)c1nnc2ccc(Nc3cccc(Cl)c3)nn12 [Compound 77]
10,≤ 250,CNCc1ccc(-c2cnc(N)c(C(=O)N[C@H](C)c3nnc4ccc(Nc5cccc(Cl)c5)nn34)n2)cc1 [Compound 78]
11,250 to 2500,Cc1ccc2nnc([C@@H](C)NC(=O)c3nc(-c4ccc(CN5CCCC5)cc4)cnc3N)n2n1 [Compound 79]
12,≤ 250,C[C@@H](NC(=O)c1nc(-c2ccc(CN3CCCC3)cc2)cnc1N)c1nnc2ccc(-c3ccccc3)nn12 [Compound 80]
13,250 to 2500,C[C@@H](NC(=O)c1nc(-c2cccs2)cnc1N)c1nnc2ccc(-c3ccccc3)nn12 [Compound 81]
14,250 to 2500,C[C@@H](NC(=O)c1nc(-c2cnn(C)c2)cnc1N)c1nnc2ccc(-c3ccccc3)nn12 [Compound 82]
15,≤ 250,C[C@@H](NC(=O)c1nc(-c2cnn(C3CCNCC3)c2)cnc1N)c1nnc2ccc(-c3ccccc3)nn12 [Compound 83]
